Measurements taken from US10640765B2 (priority 2016, dated 2020).

Key:
[1] = test system: vaccinia virus (v7.5/tk viral DNA) in BSC-1 cells; assay type: cell-based
[2] = test system: vaccinia virus; assay type: cell-based

In the case of `CO[C@H]1/C=C/O[C@@]2(C)Oc3c(C)c(O)c4c(O)c(c(/C=N/N5CCN(C)CC5)c(O)c4c3C2=O)NC(=O)/C(C)=C\C=C\[C@H](C)[C@H](O)[C@@H](C)[C@@H](O)[C@@H](C)[C@H](OC(C)=O)[C@@H]1C` [Rifampicin, rifampicin], the “efficiency (number of recombinant clones)” value [1] is reported as 113,148 clones/100 mm^2 plate and the “overall efficiency of clone production with rifampicin versus without rifampicin” value [2] is reported as “approximately 10 fold”.
